{
  "source": "patent US6734168B2",
  "about": "“Endothelial monocyte activating polypeptide II: a mediator which activates host response” (The Trustees of Columbia University in the City of New York, priority 1993, dated 2004)",
  "key": {"human PMNs": {"system": "human PMNs", "assay": "[Ca2+]i measurement in PMNs (fura-2)", "assay_type": "cell-based", "procedure": "[Ca^2+1]i measurements. PMNs or MPs (2×10^7 cells in each case) were incubated with fura-2 AM (1 μM) and pluronic detergent (0.02%) for 12 min at room temperature, diluted sixfold, and incubated for a further 30 min at room temperature to allow for complete hydrolysis of the dye. Cells were then resuspended in HEPES-buffered saline at 5×10^5 cells/ml (32). For experiments using MPs, sulfinpyrazone (0.5 mM) was included at all steps to minimize both dye sequestration into intracellular organelles and dye efflux (33). Fluorescence of fura-2 was monitored at 37° C. in a thermostatically-controlled cuvette installed in a Perkin Elmer Model 650-40 fluorescense spectrophotometer. Calibration of [Ca^2+]i was performed as described (34).\nFor determination of [Ca^2+] in PMSs and MPs, cells (2×10^7 in each case) were incubated with fura-2 AM (1 um) and pluronci detergent (0.02%) at room temperature, diluted 6-fold, and incubated for a further 30 min at room temperature to allow for complete hydrolysis of the dye. Cells were then resuspended in HEPES-buffered saline at 5×10^5 cells/ml (32). For MPs, sulfinpyrazone (0.5 mM) was included at all steps to minimize both dye sequestration into intracellular organelles and dye efflux (33). Fluorescence of fura-2 was monitored at 37° C. in a thermostatically controlled cuvette installed in a Perkin Elmer model 650-40 fluorescence spectrophotometer. Calibration of [Ca^2+] was performed as described (34)."}, "human umbilical vein ECs": {"system": "human umbilical vein ECs", "assay": "EC tissue factor activity, Factor VIIa-dependent Factor Xa formation", "assay_type": "cell-based", "procedure": "(§1) Tissue factor activity of monolayers of ECs and MPs was determined (7) after incubation with EMAP II-derived peptides at 37° C. for 4-12 hrs by washing cultures with HEPES (10 MM; pH 7.4), NaCl (137 mM), KCl (4 mM), CaCl2 (3 mM), glucose (10 mM), bovine serum albumin (0.5 mg/ml), and addition of 0.5 ml of the same buffer along with purified human Factor VIIa (1 nM) and Factor X (200 nM) for 45 min at 37° C. Aliquots (0.05 ml) of the reaction mixture (one per well) were withdrawn at 15 min intervals, added to a buffer containing Tris (50 mM; pH 7.9), NaCl (175 mM), EDTA (5 mM) and bovine serum albumin (0.5 mg/ml; 0.05 ml), and the chromogenic substrate Spectrozyme Factor Xa (American Diagnositca, Inc., Greenwich Conn.; 0.01 ml; 2 mM). Cleavage of the substrate was monitored by the change in absorbance at 405 nm (BioKinetics Reader, Winooski, Vt.). Factor Xa concentration was determined by comparison with a standard curve generated with known amounts of purified human Factor Xa. Human, plasma-derived Factors VIIa and X were purified to homogeneity as described (31).\n(§2) In Vitro Assays of EC, MP, and PMN Functions-Cell-associated tissue factor was assayed by its functional activity, using purified coagulation proteins, and tissue factor mRNA was detected by PCR. […] The concentration of Factor Xa was determined based on a standard curve generated with purified Factor Xa. […]"}, "human MPs [1]": {"system": "human MPs", "assay": "Radioligand binding of 125I-[…] to MPs", "details": "excess / increasing concentrations of unlabelled competitor", "procedure": "Radioligand binding studies were performed on human MPs plated in 96-well plates (5-6×10^4 cells/well). Cells were washed twice with Hanks balanced salt solution, and then Dulbecco's Modified Eagle Medium containing HEPES (25 mM; pH 7.4), penicillin/streptomycin (50 U/ml; 50 μg/ml), and bovine serum albumin-fatty acid free (0.5%; Sigma) were added (0.1 ml/well). Cultures were incubated at 4° C. for 2 hrs with ^125I-[…] alone or in the presence of unlabelled peptide/protein. Each well was washed four times over a period of 20 sec, and cell-associated radioactivity was eluted by an acidic buffer (HCl, 0.1 M, pH 2; NaCl, 0.1 M) at 4° C. for 5 min. During the elution period, there was no detachment of cells from the growth substrate. The conditions for incubation and washing used in the binding studies shown in FIG. 3 (2 hrs at 4° C.) were […] to allow binding of ^125I-[…] to reach an apparent maximum, even at the lowest tracer concentrations, and to remove unbound material by washing quickly so that <10% of the cell-bound radioactivity dissociated."}, "human MPs [2]": {"system": "human MPs", "assay": "MP tissue factor activity, Factor VIIa-dependent Factor Xa formation", "assay_type": "cell-based", "procedure": "as §1, §2"}},
  "data": [
    {"sequence": "ASRLDLRIGRIVTAKY [residues #6-20 from EMAP II, Cys to Arg substitution at position #15, and a C-terminal Tyr]", "values": [
      {"measurement": "Rise in [Ca2+]i in PMNs", "setting": "human PMNs", "result": "induced a rise in [Ca^2+]i"},
      {"measurement": "Induction of tissue factor activity in ECs (Factor VIIa-dependent Factor X activation)", "setting": "human umbilical vein ECs", "result": "did not demonstrate induction of tissue factor activity"},
      {"measurement": "Competition for binding of 125I-RIGRIVTAKY to MPs by unlabelled peptide/protein", "setting": "human MPs [1]", "result": "inhibition"},
      {"measurement": "Induction of tissue factor activity in MPs (Factor VIIa-dependent Factor X activation)", "setting": "human MPs [2]", "result": "did not demonstrate induction of tissue factor activity"}
    ]}
  ]
}
